This is an account of results in patent US20140288040A1, “SUBSTITUTED BENZYLAMINE COMPOUNDS, THEIR USE IN MEDICINE, AND IN PARTICULAR THE TREATMENT OF HEPATITIS C VIRUS (HCV) INFECTION” (ASTEX THERAPEUTICS LIMITED, priority 2011, published 2014).

Assay [1] relates to HCV replicon GT1b RNA in Huh-7 cells. Description: Quantitative RT-PCR of HCV replicon RNA levels. It counts as cell-based, hepatitis C virus (HCV).
Method: In order to directly determine HCV replicon RNA levels in HCV replicon bearing Huh-7 cells the cells were seeded at 100,000 cellswell, in 6 well tissue culture plates, and allowed to attach overnight before compound addition at a final DMSO concentration of 0.1%. At 72 hours post compound addition RNA was extracted from DMSO-only treated and compound-treated cells using a Qiagen RNeasy kit (Qiagen) according to the manufacturer's instructions. All samples were then normalized for total RNA concentration. […] Briefly, sample RNA (2 ng) was combined with the NS5A primers listed above at a final concentration of 1 μM and an equal volume of 2× Quantitect SYBR Green RT-PCR Master Mix. […] Amplification of HPRT RNA for each sample was determined in separate reactions. The amount of input RNA from the untreated control sample was varied in order to generate a standard curve by which the relative levels of replicon RNA from each treated sample could be expressed as fold changes relative to the untreated control sample. […] Values were calculated from the average of three independent experiments, where log10 [sequence] levels at day 3, 7, 10, and 14 post compound treatment were subtracted from log10 [sequence] […]
Assay [2] concerns the target T1, HCV NS3 protease (full length NS34a) (Hepatitis C virus genotype 1b, UniProt P26663).
T1 construct: The protease activity of the full length NS34a was measured using a FRET-based assay; made in house
The assay is described as follows: HCV NS3 protease assay (FRET, full length NS34a). As to conditions: protease activity of full length NS34a, FRET peptide substrate; read-out: Activity IC50. It is filed as biochemical. The method, boiled down: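 Full-length NS34a incubated with compound and an NS4AB cleavage-site FRET peptide (QXL520 quencher, 5-FAMsp fluorophore) in 50 mM Tris pH8, 20 mM DTT, 1% CHAPS, 10% glycerol, 5% DMSO. Fluorescence followed for 30 minutes at room temperature; IC50 from initial rates of replicate progress curves.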

Assay [3] relates to HCV subgenomic replicon in Huh-7 cells. The assay is described as follows: Replicon assay, EC50 luciferase readout. It counts as cell-based, hepatitis C virus (HCV). As to conditions: Hepatitis C virus. Put shortly: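 Huh-7 cells carrying a subgenomic HCV replicon (NS3-NS5b, firefly luciferase-neo fusion) were treated with compound for 72 h at 37°C, 5% CO2. EC50 derived from Bright-Glo luciferase signal as a proxy for HCV RNA; cell viability measured in parallel by Alamar blue.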

[4] abbreviates: Huh-7, 72 h, Huh-7 replicon cells, 72 h, single value, or second value of a pair x:y, read-out: Activity EC50 (μM) (EC50 luciferase readout).

Structures can show the parent of a compound that is named as a salt. Where two headings read alike, the source gives them in different places. A value given as a limit tells only on which side of the number the result lay.

T1 sequence (P26663 1658-1711): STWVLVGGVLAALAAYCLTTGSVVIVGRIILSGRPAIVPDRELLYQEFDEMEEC
T1 sequence (P26663 1027-1657): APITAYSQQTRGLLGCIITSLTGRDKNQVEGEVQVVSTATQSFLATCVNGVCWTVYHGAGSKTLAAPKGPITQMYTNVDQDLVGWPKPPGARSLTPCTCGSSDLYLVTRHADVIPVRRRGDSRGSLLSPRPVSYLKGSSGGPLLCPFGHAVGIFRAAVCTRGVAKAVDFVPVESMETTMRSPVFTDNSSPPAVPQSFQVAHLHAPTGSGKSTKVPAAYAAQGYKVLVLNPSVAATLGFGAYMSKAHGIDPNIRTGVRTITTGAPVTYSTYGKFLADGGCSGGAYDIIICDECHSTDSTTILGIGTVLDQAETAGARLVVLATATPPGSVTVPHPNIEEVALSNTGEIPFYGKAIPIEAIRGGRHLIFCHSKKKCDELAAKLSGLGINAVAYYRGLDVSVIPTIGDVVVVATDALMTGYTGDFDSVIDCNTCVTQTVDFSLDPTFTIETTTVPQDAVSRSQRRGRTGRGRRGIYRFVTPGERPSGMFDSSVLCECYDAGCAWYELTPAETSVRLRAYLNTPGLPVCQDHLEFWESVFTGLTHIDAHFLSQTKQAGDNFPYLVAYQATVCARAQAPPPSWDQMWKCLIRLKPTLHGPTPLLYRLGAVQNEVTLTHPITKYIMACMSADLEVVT

Usually IC50 stands for the midpoint of a concentration-inhibition curve. A word on the EC50: it is the concentration at which the effect is half-maximal. `CC[C@@H](N[C@@H](C)CC(N)=O)c1ccc(Cl)c(Oc2ccccc2)c1F` (single isomer, unassigned) [Example 88]: the “decline in HCV replicon RNA over time” value in assay [1] (10x EC50, day 3, 7, 10 and 14, compound alone) was “comparable over time with Danoprevir and VX-222”. Moreover, the “decline in HCV replicon RNA, combination” value in assay [1] (10x EC50, in combination with either Danoprevir or VX-222) was “largest declines”. For the same molecule, the half-maximal inhibitory concentration (IC50) in assay [2] stood at 100 nM. Also, the EC50 turned out to be 0.4 µM in assay [3] (setting [4]) and 0.3 µM in assay [3] (Huh-7, replicon assay, set in line with previous observations, read-out: pre-determined EC50 set for the combination experiments).
Turning to `CC[C@@H](N[C@H](C)c1cc[nH]c1)c1ccc(Cl)c(Oc2ccccc2)c1F` [Example 163, [(R)-1-(4-Chloro-2-fluoro-3-phenoxy-phenyl)-propyl]-1-[(R)-1-(1H-pyrrol-3-yl)-ethyl]-amine.dihydrochloride], the 50% inhibitory concentration (IC50) in assay [2] is 2500 nM. Also, the EC50 in assay [3] (setting [4]) is 0.94 µM.
Consider `CC[C@@H](N[C@@H](C)c1ccc[nH]c1=O)c1ccc(Cl)c(Oc2ccccc2)c1F` (single isomer, unassigned) [Example 315], for which, in assay [2], the IC50 came out at 3500 nM. Besides, the EC50 in assay [3] (setting [4]) was more than 10 µM.
